Reference: US8211881B2, “Cholesterol-mimetic pyrene probes” (Centre National de la Recherche Scientifique, priority 2005, dated 2012)

Assays:
[1] = biological target: T1, GPCR μ with opioids (hMOP) (Homo sapiens, UniProt P35372); assay: Fluorescence spectra of SH-SY5Y cells overexpressing hMOP, marked with pyrene-ketone-cholesterol (4), before and after agonist addition (FIG. 2); type: cell-based; details: agonist under saturation conditions, probe of formula (4)
T1 construct: expressed in transfected cells; host or cells: SH-SY5Y neuroblastoma cells
T1 sequence (P35372 whole entry): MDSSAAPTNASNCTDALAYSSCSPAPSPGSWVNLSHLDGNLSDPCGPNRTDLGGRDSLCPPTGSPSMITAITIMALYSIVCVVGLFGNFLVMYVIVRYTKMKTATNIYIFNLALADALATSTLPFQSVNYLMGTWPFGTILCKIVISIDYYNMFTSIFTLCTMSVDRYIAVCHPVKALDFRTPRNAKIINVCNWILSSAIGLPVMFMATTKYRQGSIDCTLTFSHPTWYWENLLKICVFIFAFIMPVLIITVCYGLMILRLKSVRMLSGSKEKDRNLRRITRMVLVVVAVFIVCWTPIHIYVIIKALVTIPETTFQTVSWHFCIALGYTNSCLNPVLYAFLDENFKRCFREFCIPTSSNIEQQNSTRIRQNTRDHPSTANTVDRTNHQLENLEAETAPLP
Procedure: Confluence cells immobilised on a 22 by 22 mm silica slice are placed in a 35 mm diameter Petri dish and covered by 1.2 ml of a 0.22 μm-filtered solution and composed of 15 ml of base medium (DMEM with 1% foetal calf serum) plus 1 ml solution of methyl-β-cyclodextrins loaded with Pyrene cholesterol (4) or (7). The mixture is left to incubate at 37° C. for between 1 and 15 mn according to the desired marking rate. Then the medium is replaced 4 times with 1.2 ml of PBS Ca++Mg++.
The images are produced with a Zeiss axioplanll microscope using a 63× oil-immersion objective (Plan-Neofluoar, NA=1.4) and a CCD camera (C2400-75i Hamamatsu) equipped with the Argus 20 system (Hamamatsu) which removes the background noise directly on the preparation corresponding to the following mounting: after the slice carrying the marked cells has been turned upside-down on a slide provided with cross-pieces, a chamber the volume of which is close to 120 μl is thus produced and filled with DMEM medium . […]
The fluorescence spectra are produced on these mountings on an AMINCO 500 spectrofluorimeter. The excitation wavelength is 335 nm bp 5 nm, the emission spectrum being recorded after 370 nm bp 4 nm and with a resolution of 0.25 nm per point.

[2] = in DMPC; cited from earlier work

Compound C=C(CCc1ccc2ccc3cccc4ccc1c2c34)[C@H]1CC[C@H]2[C@@H]3CC=C4C[C@@H](O)CC[C@]4(C)[C@H]3CC[C@]12C has a melting point of 84 °C.
In the case of C[C@@H](NC(=O)[C@@H](N)Cc1ccc(O)cc1)C(=O)NCC(=O)N(C)[C@@H](Cc1ccccc1)C(=O)NCCO [DAMGO], the “change of membrane polarity (band I1 intensity, I3 and I4 unchanged) after addition of the agonist” value [1] is reported as “reduction in the membrane polarity”.
For CC(C)CCC[C@@H](C)[C@H]1CC[C@H]2[C@@H]3CC=C4C[C@@H](O)CC[C@]4(C)[C@H]3CC[C@]12C [cholesterol], the “solubility in membrane lipids” value [2] is given as 68%.
With C[C@]12CC[C@H]3[C@@H](CC=C4C[C@@H](O)CC[C@@]43C)[C@@H]1CC[C@@H]2C(=O)CCc1ccc2ccc3cccc4ccc1c2c34 [pyrene-ketone-cholesterol, 3β-hydroxy-pregn-5-ene-21-(1-methylpyrenyl)-20-one] the melting point was 199 °C.
